Activity calls are given as the source filed them. The calls are words filed in the database; no cut-off is given here.

The target in data set [1] is T1, Nucleotide-binding oligomerization domain-containing protein 1 (Mus musculus) (UniProt Q8BHB0).
T1 sequence (whole entry): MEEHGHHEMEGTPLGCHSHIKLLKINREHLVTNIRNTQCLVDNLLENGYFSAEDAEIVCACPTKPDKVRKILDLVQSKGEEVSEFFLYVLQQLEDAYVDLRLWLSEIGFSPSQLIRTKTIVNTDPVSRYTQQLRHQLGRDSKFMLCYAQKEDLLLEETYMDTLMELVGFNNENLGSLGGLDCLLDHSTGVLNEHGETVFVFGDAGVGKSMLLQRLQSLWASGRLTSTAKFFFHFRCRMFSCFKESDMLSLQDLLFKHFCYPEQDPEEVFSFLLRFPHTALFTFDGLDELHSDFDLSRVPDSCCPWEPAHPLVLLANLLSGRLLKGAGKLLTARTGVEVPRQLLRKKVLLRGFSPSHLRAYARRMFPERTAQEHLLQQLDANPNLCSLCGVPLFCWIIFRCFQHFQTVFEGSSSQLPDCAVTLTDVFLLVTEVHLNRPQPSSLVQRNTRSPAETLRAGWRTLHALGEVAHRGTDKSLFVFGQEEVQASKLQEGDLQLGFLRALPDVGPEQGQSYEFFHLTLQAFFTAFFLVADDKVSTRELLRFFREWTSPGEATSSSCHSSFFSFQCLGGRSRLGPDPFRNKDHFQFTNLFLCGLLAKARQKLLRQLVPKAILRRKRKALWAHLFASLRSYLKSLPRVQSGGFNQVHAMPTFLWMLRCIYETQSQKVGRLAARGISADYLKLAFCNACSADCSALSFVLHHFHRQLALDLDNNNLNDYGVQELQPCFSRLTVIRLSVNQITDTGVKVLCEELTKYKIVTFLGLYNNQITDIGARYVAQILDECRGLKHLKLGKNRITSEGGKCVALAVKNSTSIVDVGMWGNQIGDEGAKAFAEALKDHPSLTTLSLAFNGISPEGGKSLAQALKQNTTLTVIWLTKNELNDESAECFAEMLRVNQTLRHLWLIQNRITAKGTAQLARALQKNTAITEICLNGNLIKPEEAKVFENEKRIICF
The data set is described as follows: Antagonist activity at mouse NOD1 expressed in HEK-Blue cells assessed as decrease in SEAP secretion incubated for 3 hrs followed by C12-iE-DAP stimulation for 20 hrs by spectrophotometry. The settings on record: HEK-Blue mNOD1, filed as antagonist, time 23.0 hrs. It is filed as cell-based.

The target of data set [2] is T1, Nucleotide-binding oligomerization domain-containing protein 1 (Mus musculus). The data set is described as follows: Antagonist activity at NOD1 in mouse BMDM cells assessed as decrease in phosphorylated JNK level at 0.1 to 1 uM incubated for 1 hr followed by C12-iE-DAP stimulation for 30 mins by Western blot analysis. The data set is classed as cell-based. The note with it: filed as antagonist, dose 0.1-1 µM, time 1.5 hrs. In general terms: A western blot detects proteins with antibodies after separation by electrophoresis.

Data set [3] can be described thus: Oral bioavailability in C57BL/6 mouse at 20 mg/kg by LC-MS/MS analysis. It is filed as ADME, organism-based. The settings on record: in vivo.
The test system of data set [4] is Mus musculus. Briefly: Anti-inflammatory activity in C57BL/6 mouse model of Helicobacter pylori-induced gastric inflammation assessed as reduction in IL-6 level in gastric tissue at 50 mg/kg, po pretreated with compound upto 24 hrs followed by infection of Helicobacter pylori measured upto 72 hrs. It is filed as functional, organism-based. The note with it: time <= 96.0 hrs.

Data set [5] addresses T2, Nucleotide-binding oligomerization domain-containing protein 1 (Homo sapiens) (UniProt Q9Y239).
T2 sequence (whole entry): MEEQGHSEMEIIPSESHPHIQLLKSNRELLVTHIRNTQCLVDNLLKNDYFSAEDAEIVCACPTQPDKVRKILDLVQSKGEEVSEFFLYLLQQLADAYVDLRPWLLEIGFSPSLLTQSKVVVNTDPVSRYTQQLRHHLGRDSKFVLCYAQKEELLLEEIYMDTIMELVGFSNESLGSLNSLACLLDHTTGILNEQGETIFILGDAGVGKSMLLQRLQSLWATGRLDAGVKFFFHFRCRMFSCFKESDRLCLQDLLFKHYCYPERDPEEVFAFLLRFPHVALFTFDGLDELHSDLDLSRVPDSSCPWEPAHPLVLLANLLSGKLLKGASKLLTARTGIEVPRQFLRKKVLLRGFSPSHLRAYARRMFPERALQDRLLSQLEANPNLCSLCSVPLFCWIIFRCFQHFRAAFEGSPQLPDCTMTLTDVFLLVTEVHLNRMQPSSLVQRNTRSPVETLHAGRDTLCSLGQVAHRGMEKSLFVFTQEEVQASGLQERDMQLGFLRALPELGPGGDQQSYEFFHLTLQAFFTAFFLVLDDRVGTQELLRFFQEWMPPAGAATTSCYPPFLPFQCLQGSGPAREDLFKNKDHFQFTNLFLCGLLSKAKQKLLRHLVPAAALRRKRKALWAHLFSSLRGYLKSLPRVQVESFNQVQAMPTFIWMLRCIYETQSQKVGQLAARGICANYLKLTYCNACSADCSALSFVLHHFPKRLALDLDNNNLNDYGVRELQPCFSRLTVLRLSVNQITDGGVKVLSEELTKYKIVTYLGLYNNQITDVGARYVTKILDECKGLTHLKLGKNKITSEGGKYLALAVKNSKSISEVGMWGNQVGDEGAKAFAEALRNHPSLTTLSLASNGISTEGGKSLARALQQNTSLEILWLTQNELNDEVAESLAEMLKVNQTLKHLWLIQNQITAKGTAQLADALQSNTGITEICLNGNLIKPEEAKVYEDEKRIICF
Briefly: Antagonist activity at NOD1 in human THP-1 cells assessed as decrease in phosphorylated RIP2 level at 0.1 to 1 uM incubated for 1 hr followed by C12-iE-DAP stimulation for 30 mins by Western blot analysis. The data set is classed as cell-based. The settings on record: filed as antagonist, dose 0.1-1 µM, time 1.5 hrs.

Data set [6] addresses T1, Nucleotide-binding oligomerization domain-containing protein 1 (Mus musculus). Briefly: Antagonist activity at NOD1 in mouse BMDM cells assessed as decrease in phosphorylated p38 level at 0.1 to 1 uM incubated for 1 hr followed by C12-iE-DAP stimulation for 30 mins by Western blot analysis. It is filed as cell-based. The settings on record: filed as antagonist, dose 0.1-1 µM, time 1.5 hrs.

The subject of data set [7] is BMDM. The data set is described as follows: Anti-inflammatory activity in mouse BMDM cells assessed as decrease in TNF-alpha mRNA level at 1 to 5 uM pretreated for 1 hr followed by infection with Helicobacter pylori for 2 hrs by RT-qPCR analysis. It is filed as functional, cell-based. The settings on record: dose 1-5 µM, time 3.0 hrs.
The target in data set [8] is T2, Nucleotide-binding oligomerization domain-containing protein 1 (Homo sapiens). The data set is described as follows: Antagonist activity at NOD1 in human THP-1 cells assessed as decrease in phosphorylated p65 level at 0.1 to 1 uM incubated for 1 hr followed by C12-iE-DAP stimulation for 30 mins by Western blot analysis. It is filed as cell-based. The note with it: filed as antagonist, dose 0.1-1 µM, time 1.5 hrs.

Data set [9] has the same target. Briefly: Antagonist activity at NOD1 in human THP-1 cells assessed as decrease in phosphorylated p38 level at 0.1 to 1 uM incubated for 1 hr followed by C12-iE-DAP stimulation for 30 mins by Western blot analysis. The settings on record: filed as antagonist, dose 0.1-1 µM, time 1.5 hrs. The data set is classed as cell-based.
Data set [10] addresses T3, Nucleotide-binding oligomerization domain-containing protein 1 (Mus musculus, UniProt Q8BHB0).
T3 sequence (Q8BHB0 whole entry): T1 sequence (whole entry)
The data set is described as follows: Antagonist activity at mouse NOD1 expressed in HEK293 cells assessed as decrease in NF-kappaB activation. The data set is classed as cell-based.

The nature of data set [11]: MRT (infinity) in C57BL/6 mouse at 2 mg/kg, iv by LC-MS/MS analysis. The data set is classed as ADME, organism-based. The settings on record: in vivo.
Data set [12] deals with THP-1. The data set is described as follows: Anti-inflammatory activity in human THP-1 cells assessed as decrease in CXCL8 mRNA level at 5 uM pretreated for 1 hr followed by infection with Helicobacter pylori for 2 hrs by RT-qPCR analysis. It is filed as functional, cell-based. The settings on record: time 3.0 hrs. For orientation: Real-time PCR tracks product formation cycle by cycle.

A word on the bioavailability: it is dose-corrected exposure relative to a reference, in per cent. Low values mean poor availability, high ones good availability. A word on the IC50: it is the concentration needed to halve the response being measured. A word on the MRT inf: it is a mean duration of stay, worked out from the concentration-time curve. Turning to `CS(=O)(=O)c1ccc2nc(Cl)n(-c3ccc(Cl)c(NS(=O)(=O)c4c(F)cccc4F)c3)c(=O)c2c1`, the Activity entry in data set [1] is “Dose-dependent-effect”. In addition, the inhibition entry in [2], in data set [5], in data set [6], in [8] and in data set [9] was “Active” throughout. The molecule also had a bioavailability in data set [3] of 4.77%. For the same molecule, the result in [4], in data set [7] and in data set [12] was Active. In data set [10], the IC50 worked out at 32 nM. In data set [11], this molecule yielded an MRT inf of 2.76 min.

Source of the values: ChEMBL document CHEMBL6074678, “Selectively Antagonizing the NOD1-Mediated Inflammatory Signaling Pathway Mitigates the Gastric Inflammation Induced by Helicobacter pylori Infection” (J Med Chem, 2024).
